These results are taken from patent US4698347A, “Octahydro-oxazolo[4,5-g]quinolines derivatives and decahydro quinoline intermediates and their use as dopamine D-2 agonists” (Eli Lilly and Company, priority 1986, dated 1987).

The test system of assay [1] is spontaneously hypertensive rats (SHR). The experiment in a line: Blood pressure and heart rate in anesthetized spontaneously hypertensive rats (SHR), i.v. Conditions: for % change in BP (mean arterial blood pressure ± standard error) / % change in heart rate (± standard error): four rats. It is filed as in vivo, rat. As for the experimental part: The compounds of this invention I, and III are effective in the treatment of hypertension.
Adult male spontaneously hypertensive rats (SHR) (Taconic Farms, Germantown, N.Y.), weighing approximately 300 g. were anesthetized with pentobarbital sodium (60 mg./kg., i.p.). The trachea was cannulated and SHR respired room air. Pulsatile arterial blood pressure was measured from a cannulated carotid artery using a Statham transducer (P23 ID). Mean arterial blood pressure was calculated as diastolic blood pressure plus 1/3 pulse pressure. Cardiac rate was monitored by a cardiotachometer which was triggered by the systolic pressure pulse. Drug solutions were administered i.v. through a catheter placed in a femoral vein. Arterial blood pressure and cardiac rate were recorded on a multichannel oscillograph (Beckman, Model R511A). Fifteen minutes were allowed to elapse following surgery for equilibration of the preparation.
In the table, column 1 gives the name of the drug, column 2 dose in μg/kg, column 3 percent change in mean arterial blood pressure plus or minus standard error and column 4, percent change in heart rate plus or minus standard error. Four rats were used at each dose level.

The test system of assay [2] is apomorphine binding sites. Briefly: Inhibition of 3H-apomorphine binding (vs spiperone sites). Particulars: printed as 40 to 1. The text has this:
With trans-(±)-2-methyl-5-n-propyl-4,4a,5,6,7,8,8a,9-octahydrooxazolo[4,5-g]quinoline; the ratio of binding, to apomorphine sites vs spiperone sites is 40 to 1.

“And” between values parts separate entries of the source, which are not always exact repeats. Equal entries are not always repeated.

For `CCCN1CCC[C@H]2Cc3nc(N)oc3C[C@@H]21` (racemic) [Trans-(±)-2-amino-5-n-propyl-4,4a,5,6,7,8,8a,9-octahydro-oxazolo[4,5-g]quinoline], the “% change in BP (mean arterial blood pressure ± standard error)” value was -18.3 ± 5.7% in assay [1] (dose 0.1 μg/kg), -8.6 ± 1.6% in assay [1] (dose 1 μg/kg) and -15.1 ± 1.1% in assay [1] (dose 10 μg/kg). Moreover, the “% change in heart rate (± standard error)” value in assay [1] (dose 0.1 μg/kg) is -8.5 ± 2.2%; in assay [1] (dose 1 μg/kg), -4.4 ± 0.9%; in assay [1] (dose 10 μg/kg), -5.6 ± 0.7%; in assay [1] (dose 100 μg/kg) it was -17.5 ± 2.3% and -19.1 ± 3.4%. Further, the “Duration of change in BP” value in assay [1] (dose 100 μg/kg) is given as “* (Duration of 15 min or greater)”.

On to `CCCN1CCC[C@H]2Cc3nc(C)oc3C[C@@H]21` (racemic) [Trans-(±)-2-methyl-5-n-propyl-4,4a,5,6,7,8,8a,9-octahydro-oxazolo[4,5-g]quinoline], for which the “% change in BP (mean arterial blood pressure ± standard error)” value in assay [1] (dose 1 μg/kg) was -3.2 ± 0.5%; in assay [1] (dose 10 μg/kg) it was -7.0 ± 1.0%; in assay [1] (dose 100 μg/kg), -19.6 ± 1.4%; in assay [1] (dose 1000 μg/kg), -26.2 ± 4.3%. In addition, the “% change in heart rate (± standard error)” value in assay [1] (dose 1 μg/kg) is -2.4 ± 0.8%; in assay [1] (dose 10 μg/kg) it was -2.8 ± 0.4%; in assay [1] (dose 100 μg/kg), -16.1 ± 7.6%; in assay [1] (dose 1000 μg/kg), -23.6 ± 4.4%. The “Duration of change in BP” value in assay [1] (dose 100 μg/kg) and in assay [1] (dose 1000 μg/kg) was “* (Duration of 15 min or greater)” each time. The “ratio of binding, to apomorphine sites vs spiperone sites” value in assay [2] amounted to 40.

For `CCCN1CCC[C@H]2Cc3ncoc3C[C@@H]21` (racemic) [trans-(±)-5-n-propyl-4,4a,5,6,7,8,8a,9-octahydro-oxazolo[4,5-g]quinoline], the “% change in BP (mean arterial blood pressure ± standard error)” value is given as -5.0 ± 1.2% in assay [1] (dose 1 μg/kg), -10.2 ± 1.0% in assay [1] (dose 10 μg/kg), -27.4 ± 20% in assay [1] (dose 100 μg/kg) and -37.7 ± 4.9% in assay [1] (dose 1000 μg/kg). The “% change in heart rate (± standard error)” value in assay [1] (dose 1 μg/kg) was -3.6 ± 0.5%; in assay [1] (dose 10 μg/kg), -4.6 ± 0.6%; in assay [1] (dose 100 μg/kg) it was -28.5 ± 2.6%; in assay [1] (dose 1000 μg/kg), -31.8 ± 3.7%. Further, the “Duration of change in BP” value in assay [1] (dose 100 μg/kg) and in assay [1] (dose 1000 μg/kg) was “* (Duration of 15 min or greater)” each time.
